# Data published in patent publication US20040147554A1, “Crystalline form of (3R,4R)-4-[3-(S)-hydroxy-3-(6-methoxy-quinolin-4-yl)propyl]-1-[2-2thienylthio)ethyl] piperidine-3-carboxylic acid” (Aventis Pharms S.A., priority 2002, published 2004).
# Experiments:
# Assay type in all cases: physicochemical
# [1] = Stability of the crystalline form versus humidity (powder X-ray diffraction)
# Protocol: The analyses are carried out on a Bruker D8 diffractometer having a copper-anticathode tube equipped with a front monochromator (wavelength of the copper Kα1 line: 1.54060 Å). The arrangement is of Bragg-Brentano type, with a point scintillation detector. The angular range swept extends from 2 to 40 degrees 2θ with a step of 0.02 degrees 2θ. The counting time is 120 seconds per step.
# Form C of (3R,4R)-4-[3-(S)-hydroxy-3-(6-methoxyquinolin-4-yl)propyl]-1-[2-(2-thienylthio)ethyl]piperidine-3-carboxylic acid is a monohydrate form. It is stable at 25° C. and at the degree of ambient humidity. It is particularly stable between 50% and 100% humidity.
# [2] = Loss in mass on heating below 50% humidity (dehydration); conditions: between 25° C. and 75° C., 1 mole of water/mole of the acid, dehydration to form B
# Protocol: Below 50% humidity, a loss in mass of 3.7% by weight is recorded between 25° C. and 75° C. (1 mole of water/mole of the acid). This loss in mass corresponds to the dehydration of the form C to give another form of (3R,4R)-4-[3-(S)-hydroxy-3-(6-methoxyquinolin-4-yl)propyl]-1-[2-(2-thienylthio)ethyl]piperidine-3-carboxylic acid, hereinafter known as form B.
# [3] = Stability of the crystalline form in alcohol/water mixtures; conditions: methanol/water or ethanol/water (1/1 by volume), after 30 days
# Protocol: by stirring a suspension of form A at a temperature of 20° C.-25° C., in tetrahydrofuran/demineralized water (50/50 by volume), methyl ethyl ketone/demineralized water (80/20 by volume to 20/80 by volume), acetonitrile/demineralized water (50/50 by volume to 20/80 by volume) or ethanol or methanol/demineralized water (50/50 by volume) mixtures, for 5 days to about 30 days.
humidity up to which the form is stable ([1]; humidity),"stability of the crystalline form ([1]; 25° C., ambient humidity)","stability by powder X-ray diffraction ([1]; 97% humidity, 20° C., after 11 weeks)",loss in mass [2],stability of the crystalline form in solvent mixture [3],SMILES
up to 30%,,,,,"COc1ccc2nccc([C@@H](O)CC[C@@H]3CCN(CCSc4cccs4)C[C@@H]3C(=O)O)c2c1 [Form B, (3R,4R)-4-[3-(S)-hydroxy-3-(6-methoxyquinolin-4-yl)propyl]-1-[2-(2-thienylthio)ethyl]piperidine-3-carboxylic acid]"
,stable,stability in the monohydtrate form,3.7 % by weight,stable,"COc1ccc2nccc([C@@H](O)CC[C@@H]3CCN(CCSc4cccs4)C[C@@H]3C(=O)O)c2c1 [Form C, (3R,4R)-4-[3-(S)-hydroxy-3-(6-methoxyquinolin-4-yl)propyl]-1-[2-(2-thienylthio)ethyl]piperidine-3-carboxylic acid]"
